Test results: PMC9189929, “Synthesis, Screening and Characterization of Novel Potent Arp2/3 Inhibitory Compounds Analogous to CK-666” (Frontiers in Pharmacology, 2022)
Values after ≈ are worked out from the molar mass of the structure shown. One block for each molecule: values may come before it.

How the values were obtained:
fish keratocytes = test system: fish keratocytes; parameters: method as in Nolen et al., 2009; conditions: ref Nolen et al., 2009; cited from earlier work
B16-F1 cells [1] = experiment: Wound healing (cell migration) of B16-F1 cells; assay type: cell-based, mouse
Experimental: For the wound healing, B16-F1 cells were seeded onto 8-well Ibidi dishes coated with laminin, and grown to confluence. Wounds in the cell monolayer were obtained by scratching the monolayer with a pipet tip. Detached cells were immediately washed away and new medium containing the various compounds was added. Cells were then used for videomicroscopy.
Videomicroscopy was performed on an inverted Axio Observer microscope (Zeiss) equipped with a Pecon Zeiss incubator XL multi S1 RED LS (Heating Unit XL S, Temp module, CO2 module, Heating Insert PS and CO2 cover), Definite focus module and a Hamamatsu camera C10600 Orca-R2. Phase contrast images were taken every 30 min for 24 h using the 10X/0.25 Plan-Apochromat air objective. For immunofluorescence, slides were observed and imaged with the 63X/1.4 Plan-Apochromat oil objective. Fluorophores were excited with the HBO 100 W lamp (Osram) installed in the HXP 120 Metal halide fluorescence light source (Zeiss).
(§1) Image analysis was performed in ImageJ or FIJI software. To measure wound healing, boundaries of the wound were drawn manually at different time points, then wound size was measured.

sea urchin embryos [2] = experiment: Sea urchin embryo development assay; assay type: in vivo, Paracentrotus lividus
Experimental: The procedure was described in detail in [Semenova et al., 2018]. Briefly, adult sea urchins, Paracentrotus lividus L (Echinidae), were collected from the Mediterranean Sea on the Cyprus coast and kept in an aerated seawater tank. Gametes were obtained by intracoelomic injection of 0.5 M KCl. Eggs were washed with filtered seawater and fertilized by adding drops of diluted sperm. Embryos were cultured at room temperature under gentle agitation with a motor-driven plastic paddle (60 rpm) in filtered seawater. […] For treatment with test compounds, 5 ml aliquots of embryo suspension were transferred to six-well plates and incubated at a concentration of 1,000–2,000 embryos/ml. For images, sedimented embryos were concentrated in the center of the well by gentle rotation of the culture plate, and 200 μl aliquots containing several hundred embryos were used to take pictures (up to 20 images from different fields). Embryos selected for Figure 4 were representative of the population.
(§2) Stock solutions of compounds were prepared in DMSO at 50–250 mM concentration followed by a 10-fold dilution with 96% EtOH. This procedure enhanced the solubility of the test compounds in the salty seawater. Maximal tolerated concentrations of DMSO and EtOH in the assay were determined to be 0.05 and 1%, respectively. Higher concentrations of either DMSO (>0.1%) or EtOH (>1%) caused nonspecific alterations and retardation of the sea urchin embryo development independent of the treatment stage. Maximum solubility of compounds 15, 59, 69, and 71 was about 5–20 mM in seawater, since visible crystals formed at higher concentrations.
The effects were assessed after exposure of fertilized eggs (8–15 min post fertilization, 45–55 min before the first mitotic cycle completion) to 2-fold decreasing concentrations of the compound. Embryonic development was monitored until the beginning of active feeding at four-arm pluteus stage (33–36 h postfertilization). Developmental abnormalities were estimated quantitatively as minimal effective concentration (MEC), resulting in inhibition of archenteron elongation or skeletal spicule formation.

B16-F1 cells [3] = experiment: Lamellipodium formation in B16-F1 cells (cortactin immunofluorescence); assay type: cell-based, mouse
Experimental: Lyophilized compounds were resuspended with fresh DMSO from sealed vials (cell biology grade). Compounds, stored at +4°C, were used within a week. B16-F1 cells were seeded onto glass coverslips coated for 1 h with 25 μg/ml laminin (Sigma) in (50 mM Tris, 150 mM NaCl, pH 7.4). […] Cell were then processed for immunofluorescence.
Cells were fixed in 3.2% PFA on PBS, then quenched with 50 mM NH4Cl and permeabilised with 0.5% Triton X-100. After blocking in 2% BSA cells were incubated with antibodies (1–5 μg/ml for the primary, 5 μg/ml for the secondary). Total actin in cells was visualized by phalloidin staining. Nuclei were stained with 0.3 μg/ml DAPI (Roche). Coverslips were mounted in Dako Fluorescence Mounting Medium (Agilent). For immunofluorescence, ARPC2 rabbit polyclonal antibody (Millipore, 07–227), Cortactin mouse monoclonal 4F11 (Millipore, 05–180) were used. Secondary goat anti-mouse and anti-rabbit antibodies conjugated with Alexa Fluor 555 and 647 respectively were from Life Technologies. Phalloidin conjugated with Alexa Fluor 488 was from Tebu-bio.
as §1

Arp2/3 [4] = biological target: T1, Arp2/3 (Bos taurus, UniProt A7MB62+P61157); experiment: Pyrene-actin polymerization assay; assay type: biochemical, bovine; conditions: 20 nM Arp2/3, 250 nM N-WASP VCA; for IC50: 1.5 μM actin (10% pyrenyl-labeled), read-out: IC50 of Arp2/3-mediated actin polymerization; for Arp2/3 inhibition reached at saturation: 1.5 μM actin
T1 construct: purchased Cytoskeleton, Inc
Experimental: Actin was purified from rabbit muscle and was pyrenyl-labeled ([Carlier et al., 1984]; [Malm, 1984]). Arp2/3 was from Cytoskeleton, Inc. VCA domain of N-WASP was purified as previously described ([Clainche et al., 2003]). Pyrene-actin polymerization assays were performed as previously ([Romero et al., 2007]). Briefly, CaATP-actin was converted into MgATP-actin in (5 mM Tris, 0.2 mM ATP, 0.1 mM CaCl2, 1 mM DTT, 1 mM MgCl2, and 0.2 mM EGTA, pH 7.6) and kept on ice for no more than 1 h. Actin polymerization was monitored in (5 mM Tris, 50 mM KCl, 0.2 mM ATP, 0.1 mM CaCl2, 1 mM DTT, 1 mM MgCl2, 0.2 mM EGTA, pH 7.6) in the presence of 2% DMSO alone or 2% DMSO containing the appropriated compound concentration. The increase in fluorescence of 10% pyrenyl-labeled actin was monitored using a Safas spectrofluorimeter (λexc = 366 nm, λem = 407 nm). The maximum rate of actin polymerization was derived from the maximum slope of the polymerization curve multiplied by [total polymer]/(RFUmax—RFUmin) [total polymer] is the total actin minus the critical concentration (0.1 μM) and RFU, Relative Fluorescence Unit. The maximum elongation rates of actin polymerization were plotted as a function of the concentration of the different compounds. For CK-666, 59, 69 and 71, curves were fitted with the following equation to determine the IC50. Mrate= Rmax−Rmax−Rmin/1+IC50/(Compound Conc.) where Mrate is the measured maximum rate of actin polymerization at a given compound concentration, Rmax is the maximum rate of actin polymerization with no compound, and Rmin is the maximum rate of actin polymerization at saturating concentration of compound.
The curve of compound 15 was fitted with a linear decay. The IC50 was determined at half inhibition of actin polymerization.

Arp2/3 [5] = conditions: introduction statement, no reference given; read-out: IC50 of inhibition of Arp2/3 activation; cited from earlier work
MCF10A cells = experiment: EdU incorporation / cell cycle progression screen in MCF10A cells; assay type: cell-based, human; conditions: for IC50: Homo sapiens, MCF-10A, 18 h treatment, rough values from Figure 1 graphs, read-out: IC50 (concentration required for 50% decrease of EdU-positive cells); for Outcome of EdU incorporation screen: 0.025 to 100 μM
Experimental: For cell cycle progression using EdU, MCF10A cells were seeded in 384-well plates at a density of 800 cells per well. […] EdU from kit C10337 (ThermoFischer Scientific, Waltham, MA, United States) was then added to the cells at 10 μM and incubated for 2.5 h. Cells were fixed in 4% paraformaldehyde for 30 min at room temperature. Click-iT reaction was performed for 1 h at room temperature, protected from light, with 5 µM Alexa Fluor 488 azide in (100 mM Tris, 1 mM CuSO4, 50 mM Ascorbic Acid, pH 8.5). Nuclei were counterstained with Hoechst 33,342 (Thermo Fisher Scientific). Imaging and analysis were performed using the ImageXpress Micro XL High-Content Screening System (Molecular Devices LLC, San Jose, CA, United States). IC50 values were determined by sigmoidal curve fitting using GraphPad Prism six software.

sea urchin embryos [6] = test system: sea urchin embryos; parameters: method as in Sepúlveda-ramírez et al., 2018; conditions: 100 μM; ref Sepúlveda-ramírez et al., 2018; cited from earlier work
B16-F1 cells [7] = experiment: Cell viability (MTS) of B16-F1 cells; assay type: cell-based, mouse; conditions: 100 μM, 4 h
Experimental: Cell viability was assessed using the CellTiter 96® AQueous One Solution Cell Proliferation kit (Promega) on a Multiscan Spectrum spectrophotometer (Thermo LifeSciences), with absorbance read at 490 nm.

[8] = Maximum solubility in seawater; assay type: physicochemical; conditions: saline or isotonic, kinetic from dmso stock, visible crystals formed at higher concentrations
Experimental: as §2

[9] = observed up to four-arm mid-pluteus stage
[10] = treated at zygote stage, monitored to four-arm pluteus

IC50 (Arp2/3 [4]): 23 µM
Arp2/3 inhibition reached at saturation (Arp2/3 [4]): 78%
SMILES: Cc1[nH]c2ccccc2c1CCNC(=O)c1ccccc1F [CK-666, 2-Fluoro-N-[2-(2-methyl-1H-indol-3-yl)ethyl]benzamide]
Inhibition of migration of fish keratocytes (fish keratocytes): unable to inhibit the migration of fish keratocytes
Inhibition of wound healing (B16-F1 cells [1]; 100 µM): inhibits wound healing
Developmental phenotype (sea urchin embryos [2]; 100 μM, 22°C): Defective gastrulation
Effect on archenteron elongation (sea urchin embryos [2]; [9]): inhibited elongation of the archenteron at approximately half-size
Effect on primary mesenchyme cell (PMC) migration (sea urchin embryos [2]; [9]): altered PMC migration resulting in the lack of ventrolateral clusters and spicules
Minimum effective concentration, Inhibition of Archenteron elongation (sea urchin embryos [2]; [10]): 50 µM
Minimum effective concentration, Inhibition of Spicule formation (sea urchin embryos [2]; [10]): 25 µM
Effect on cleavage and embryo spinning (antimitotic microtubule destabilizing effects) (sea urchin embryos [2]; up to 20–50 μM): did not affect cleavage and did not induce embryo spinning
Inhibition of lamellipodium formation (B16-F1 cells [3]; 100 μM, 1 h): blocked lamellipodium formation almost completely
IC50 (Arp2/3 [5]): ~50 µM
IC50 (MCF10A cells): 56.3 µM
Effect on PMC migration and spiculogenesis (sea urchin embryos [6]): alters proper migration of PMC and formation of ventrolateral clusters with ensuing inhibition of spiculogenesis

SMILES: Cc1[nH]c2ccc(OC(F)(F)F)cc2c1CCNC(=O)c1ccc(S(=O)(=O)N(CCCl)CCCl)cc1 [Compound 52, 4-{[Bis(2-chloroethyl)amino]sulfonyl}-N-{2-[2-methyl-5-(trifluoromethoxy)-1H-indol-3-yl]ethyl}benzamide]
Toxicity to B16-F1 cells (viability, MTS) (B16-F1 cells [7]): reduced the cell population by half or more
Outcome of EdU incorporation screen (MCF10A cells): scored positive
IC50 (MCF10A cells): 3.17 µM

SMILES: Cc1[nH]c2ccc(F)cc2c1CCNC(=O)c1cc(S(=O)(=O)N(C)C)c(Cl)cc1Cl [Compound 64, 2,4-Dichloro-5-[(dimethylamino)sulfonyl]-N-[2-(5-fluoro-2-methyl-1H-indol-3-yl)ethyl]benzamide]
Toxicity to B16-F1 cells (viability, MTS) (B16-F1 cells [7]): reduced the cell population by half or more
Outcome of EdU incorporation screen (MCF10A cells): scored positive
IC50 (MCF10A cells): 6.66 µM

Cell rounding and detachment in wound healing assay (B16-F1 cells [1]; 25 µM): still induced cell rounding
Developmental abnormality (sea urchin embryos [2]; 5 μM): suppressed plutei growth
Developmental abnormality (sea urchin embryos [2]; 20 μM): defective gastrulation was observed
solubility [8]: 5 to 20 µM (≈ 2.67 to 10.7 µg/mL)
IC50 (Arp2/3 [4]): 539 µM
Arp2/3 inhibition reached at saturation (Arp2/3 [4]): saturation was not reached
SMILES: Cc1[nH]c2c(C(F)(F)F)cccc2c1CCNC(=O)c1cc(S(=O)(=O)NC2CC2)c(Cl)cc1Cl [Compound 71, 2,4-Dichloro-5-[(cyclopropylamino)sulfonyl]-N-{2-[2-methyl-7-(trifluoromethyl)-1H-indol-3-yl]ethyl}benzamide]
Cell rounding and detachment in wound healing assay (B16-F1 cells [1]; 100 µM): induced cell rounding followed by detachment from the substrate
Inhibition of cell migration (wound healing) compared with 100 µM CK-666 (B16-F1 cells [1]; compound at 25 µM): inhibited cell migration even more effectively
Minimum effective concentration, Systemic Toxicity (sea urchin embryos [2]; [10]): 5 µM
Dose-dependent inhibition of lamellipodium formation, potency relative to CK-666 (B16-F1 cells [3]; dose-dependent assay (Figure 2D)): significantly more potent than CK-666
Outcome of EdU incorporation screen (MCF10A cells): scored positive
IC50 (MCF10A cells): 3.58 µM
